Consider three compounds from patent US5162231A, “Method of using 5,10,15,20-tetrakis(carboxyphenyl)porphine for detecting cancers of the lung” (priority 1990, dated 1992).

Series [1] relates to cancers of the lung grown in tissue cultures. The experiment in a line: TCPP localization in lung cancers grown in tissue culture. Type of series: cell-based.
In the next series the test system is squamous carcinoma cells. The experiment in a line: TCPP uptake in squamous carcinoma cells, flow cytometry. The series is classed as cell-based. Particulars: squamous carcinoma cells grown in culture. (In general: Flow cytometry measures light scatter and fluorescence of single cells or particles in a stream.)
The test system of another series is malignant sputum cells. The experiment in a line: Porphyrin uptake in sputum cells evaluated with a fluorescent microscope. The series is classed as cell-based, human. The source says:
Five parameters were investigated for this study: (1) the effect of various sputum processing procedures on the uptake of porphyrin in sputum cells, (2) the comparison of TCPP to three other porphyrins that are known for their uptake by tumors, (3) the time required for optimal uptake of the porphyrin in sputum cells, (4) the uptake of porphyrin in test and control sputum samples, and (5) the verification that TCPP was localizing in malignant sputum cells. In each of these investigations, the uptake of porphyrin in sputum cells was evaluated with a fluorescent microscope. Nonmetallated porphyrin fluoresces at approximately 650 nm. Sputum samples were evaluated for (1) the number of cells in the sputum samples which fluoresced, and (2) the intensity of the porphyrin fluorescence.
Sputum samples require processing in order to produce a single cell suspension of lung cells. Sputum samples from test and control patients were collected and processed with alcohol and carbowax, alcohol only, phosphate-buffered saline (PBS), or left unprocessed. All samples were mixed with a blender for 1 minute following the addition of the processing mixture and then placed into petri dishes containing various porphyrins. […] Cells in the unprocessed sputum samples remained attached to the bottom of the petri dish with only a few cells free of the mucous.
Four porphyrins selected for their known affinity for neoplastic cells were tested for their ability to detect malignant sputum cells. Sputum cells obtained from each of the four processing procedures set forth above were treated with one of hematoporphyrin derivative, HPD, 5,10,15,20-tetrakis(4-carboxyphenyl)porphine, TCPP, 5,10,15,20-tetrakis(4-sulfonatophenyl)porphine, TTPS, or uroporphyrin, URO. In all investigations, the porphyrins were dissolved in tissue culture medium at a concentration of 200 μg/ml. Following the addition of porphyrin, each sample was incubated at 37° C. for a specific length of time.
Following the incubation period, each sputum sample was examined for porphyrin uptake with a fluorescent microscope. The background fluorescence from porphyrin uptake by nonmalignant cells was lower in some measurements.
Each sputum sample was incubated at 37° C. with each of the porphyrins for either 6 or 24 hours and then evaluated for porphyrin uptake with a fluorescent microscope. At the 6 hour incubation period, the cells had begun to localize porphyrin; however, when the sputum cells were washed with PBS, the fluorescence diminished considerably. […] By 24 hours, by contrast, the uptale of porphyrin by sputum cells increased considerably. […] When the sputum cells that had been incubated for 24 hours were washed with PBS, the porphyrin remained attached to the cells. Longer incubation times were not investigated.
When porphyrin uptake in the test and control samples were compared (i.e., the number of sputum cells which fluoresced), the porphyrin uptake in the control samples was considerably lower than the uptake in the test samples. In addition, the fluorescence intensity of the few control cells that did floresce was lower than the fluorescence intensity of the test cells.

Series [2] deals with human small cell (oat cell) lung carcinoma. Nature of the series: TCPP uptake in small cell lung carcinoma cells. Type of series: cell-based.
Series [3] concerns normal human lung epithelial cells. The experiment in a line: TCPP uptake in normal lung epithelial cells. The series is classed as cell-based.
The test system of a further series is neoplastic sputum cells. Nature of the series: TCPP fluorescence in PAP-stained neoplastic sputum cells. The series is classed as cell-based, human. Particulars: after PAP staining. The text has this: To assist in the identification of the neoplastic cells, sputum samples which had the greatest TCPP uptake were stained with PAP stain, a stain routinely used by cytologists to identify neoplastic cells. Cells identified as neoplastic using the PAP stain were marked and re-examined for TCPP uptake with a fluorescent microscope.

The test system of series [4] is neoplastic sputum cells (squamous cell lung carcinoma, oat cell lung carcinoma, lung adenocarcinoma, advanced metastatic lymphoma). Nature of the series: Fluorescence of sputum samples from lung cancer patients versus noncancerous patients. Type of series: cell-based, human. Here is the method:
Studies were conducted using patients having confirmed squamous cell lung carcinoma, oat cell lung carcinoma, lung adenocarcinoma, and advanced metastatic lymphoma (lung metastasis) using procedures identical to those set forth above.

The nature of series [5]: Biological half-life study. Type of series: in vivo. Particulars: rats, intravenous; exponential decay. The text has this:
(§1) A sterile dose of ^67 CuTCPP (1.0×10^-6 gm) was intravenously injected into the tail vein of rats.

The nature of series [6]: Biodistribution in rats after intravenous injection. The series is classed as in vivo. The settings on record: normal rats (no cancer), 1.0×10^-6 gm.
Description: as §1

The nature of series [7]: Serum stability: loss of copper measured by fluorescence under simulated physiological conditions. The series is classed as in vitro ADME, human. The source says:
An important consideration in the development of a radiopharmaceutical is the stability of the complex ^67 Cu TCPP to the loss of the radioisotope ^67 Cu in vivo.

Setting [8] is: 200 μg/ml, 37° C., four porphyrins compared.

`O=C(O)c1ccc(-c2c3nc(c(-c4ccc(C(=O)O)cc4)c4ccc([nH]4)c(-c4ccc(C(=O)O)cc4)c4nc(c(-c5ccc(C(=O)O)cc5)c5ccc2[nH]5)C=C4)C=C3)cc1` [TCPP, 5,10,15,20-tetrakis(4-carboxyphenyl)porphine]: in [1] (24 hours in TCPP), the “incubation time for TCPP localization” value was “more than adequate to maximize the TCPP localization”. In addition, the “effect of fixing the cells prior to TCPP exposure on TCPP uptake” value in [1] (fixed prior to TCPP exposure) is “increased the TCPP uptake”. The “effect of paraformaldehyde fixation on TCPP uptake” value in series [1] (paraformaldehyde vs alcohol and carbowax) was “slightly increase the TCPP uptake”. Besides, in series [1] (tissue culture), the “localization in cultured lung cancers” value is “localizes in cancers of the lung grown in tissue cultures”. Besides, the “detection by flow cytometry” value in the series on squamous carcinoma cells is given as “can easily be detected using flow cytometry”. In addition, in the series with malignant sputum cells (setting [8]), the “contrast (brightness) between fluorescing malignant cells and background fluorescence” value is “greatest contrast (brightness)”; the “number of cells fluorescing” value is “greatest number of cells fluorescing”; the porphyrin uptake entry is given as “significant porphyrin uptake in the malignant bodies”. Further, the “TCPP uptake by sputum processing procedure” value in the series on malignant sputum cells (alcohol or alcohol/carbowax processing vs PBS or unprocessed) was “highest TCPP uptake”. Also, the “difference between the uptake of porphyrin by test and control sputum cells” value in the series on malignant sputum cells (four porphyrins compared) is “most dramatic difference”. Besides, the “TCPP uptake compared with normal cells” value in [2] (vs normal cells) was “considerably higher than uptake in normal cells”. In series [2] (vs squamous cell line), the “TCPP absorption lower than in squamous cell line” value is listed as 2-3 times lower. Further, in series [3] (normal human lung epithelial cells), the “TCPP concentration relative to autofluorescence or background” value is reported as “only slightly above autofluorescence or background levels”. In addition, in series [3] (vs neoplastic cell lines examined), the “TCPP concentration relative to neoplastic cell lines” value is on record as “many times lower concentration”. For the same compound, the “TCPP fluorescence in neoplastic cells identified by PAP stain” value with neoplastic sputum cells is on record as “seen in every neoplastic cell”. Besides, in series [4] (carbowax and ethanol), the “uptake of porphyrin in neoplastic sputum cells” value was “greatest uptake of porphyrin in neoplastic sputum cells”. Moreover, the “number of fluorescent cells times fluorescence intensity, cancer patients vs noncancerous patients” value in series [4] (sputum samples) is recorded as 3-6 times.

In series [5], `O=C([O-])c1ccc(C2=C3C=CC(=N3)C(c3ccc(C(=O)[O-])cc3)=C3C=CC(=N3)C(=c3ccc(=C([O-])[O-])cc3)c3ccc([n-]3)C(c3ccc(C(=O)[O-])cc3)=C3C=CC2=N3)cc1.[67Cu+2].[H+].[H+].[H+].[H+]` [^67 CuTCPP] had a biological half-life of 108 hours. For the same compound, in series [6], the “uptake by normal lung tissue” value was “does not appear to take up significant quantities”. Also, in series [6] (tail vein), the “major organs of localization” value was “liver and kidney”. Moreover, in series [7] (human serum albumin, EDTA and DTPA, up to 12 days, one percent is the limit of detection), the “conversion (loss of copper)” value is “less than one”. The “transcomplexation with other metal ions” value in [7] (ultraviolet-visible spectroscopy) was “no detectable transcomplexation with other metal ions”.

Take uroporphyrin [reference compound]: the porphyrin uptake entry in the series with malignant sputum cells (setting [8]) is given as “least porphyrin uptake”.
